The record followed here is US9708314B2, “Heterocyclic amide compound” (NISSAN CHEMICAL INDUSTRIES, LTD., priority 2013, dated 2017).

Each structure is given as a SMILES string.

Usually melting point stands for the temperature of the solid-liquid transition. In turn, `Cc1nnc(NC(=O)c2ccc(C(F)(F)F)n3c(C(C)C)nnc23)o1` [1-004, 3-Isopropyl-N-(5-methyl-1,3,4-oxadiazol-2-yl)-5-(trifluoromethyl)-[1,2,4]triazolo[4,3-a]pyridine-8-carboxamide] registered a melting point of 176 to 178 °C. Molecule `CSc1nnc2c(C(=O)Nc3nnc(C)o3)ccc(C(F)(F)F)n12` [1-018, N-(5-Methyl-1,3,4-oxadiazol-2-yl)-3-(methylthio)-5-(trifluoromethyl)-[1,2,4]triazol o[4,3-a]pyridine-8-carboxamide] showed a melting point of 230 to 233 °C.
